{"source": "patent US9974290B2", "about": "“Animal model and method for studying gene-gene interactions” (UNIVERSITY OF SOUTH FLORIDA, priority 2015, dated 2018)", "tested_on": "Raji B cells", "experiment": "Apoptosis assay in Raji B cells treated with PS-341", "assay_type": "cell-based", "conditions": "Raji B cells treated with PS-341 (FIG. 11B); effect can be rescued by LRBA knockdown", "description": "FIGS. 2A, 2B, 2C-1, 2C-2, 2D, and 2E. LRBA interacts with NFkB and regulates cell survival. FIG. 2A: LRBA was stably knocked down in Raji cells by the short hairpin (sh) RNA technique in Raji B cells. NFkB activity was measured by an NFkB luciferase reporter. FIG. 2B: The phospho-NFkB (pS529) levels were detected by Phosflow Kit. FIGS. 2C-1 and 2C-2: TNFα (FIG. 2C-1) and IL10 (FIG. 2C-2) proteins levels were measured by the human Th1/Th2 cytokine bead-array kit. FIG. 2D: Apoptosis assay. Raji B cells were treated with various stress stimuli including proteasome inhibitors, serum starvation and bacterial infection. Apoptosis was detected by Annexin V-PE and 7-AAD. FIG. 2E: LRBA (−/−) ES cell clones were obtained by culturing LRBA (+/−) ES cells with 1 mg/ml G418 for ˜two weeks. Equal number of ES cells was plated into each well of a 96-well plate. The average cell numbers were counted from three wells at each time point.\nFIGS. 11A-11E. LRBA interacts with important genes in regulating apoptosis and proliferation. […] FIG. 11A: NFkB activity was measured by an NFkB luciferase reporter. The Phosphorylated (P−) NFkB (pS529) levels were detected by Phosflow Kit. […] The average cell numbers were counted from three wells at each time point. […] Cell lysates from WT or LRBA KD stable Raji cells were analyzed by Western blot. Protein levels were quantified with Quantity One software. […]"}
{"smiles": "CC(C)C[C@H](NC(=O)[C@H](Cc1ccccc1)NC(=O)c1cnccn1)B(O)O", "note": "[PS-341]", "values": [{"measurement": "apoptosis", "value": "promotes apoptosis"}]}
